Test results taken from patent US8975288B2 (priority 2013, dated 2015).
Converted amounts (≈) assume the structure as drawn.

How the values were obtained:
[1] = tested on: B. anthracis Sterne (pXO1+, pXO2−); assay: microbe, parasite or virus in culture; type: cell-based; settings: Bacillus anthracis, read-out: MIC B. anthracis
S. flexneri = assay: microbe, parasite or virus in culture; type: cell-based; settings: Shigella flexneri, read-out: MIC S. flexneri
trans-translation = type: biochemical, E. coli; settings: 10 μM final concentration; DHFR template lacking the stop codon; tagging efficiency vs no inhibitor control

SMILES | MIC [1] | MIC (S. flexneri) | % inhibition in vitro (trans-translation)
CCCn1nnnc1NC(=O)c1ccccc1 [Compound 1, N-(1-propyl-1H-tetrazol-5-y1)benzamide] | > 500 µM | > 500 µM | –
CCCn1nnnc1NC(=O)c1cccc(Br)c1 [Compound 2, 3-bromo-N-(1-propyl-1H-tetrazol-5-yl)benzamide] | > 500 µM | 250 µM (≈ 77.5 µg/mL) | –
CCCn1nnnc1NC(=O)c1cccc(F)c1 [Compound 3, 3-fluoro-N-(1-propyl-1H-tetrazol-5-yl)benzamide] | > 500 µM | > 500 µM | –
CCCn1nnnc1NC(=O)c1ccc(N(C)C)cc1 [Compound 4, 4-(dimethylamino)-N-(1-propyl-1H-tetrazol-5-yl)benzamide] | > 500 µM | > 500 µM | 74.9%
CCCn1nnnc1NC(=O)c1ccc(N(CC)CC)cc1 [Compound 5, 4-(diethylamino)-N-(1-propyl-1H-tetrazol-5-yl)-benzamide] | > 500 µM | > 500 µM | –
CCCn1nnnc1NC(=O)C1CCCCC1 [Compound 7, N-(1-propyl-1H-tetrazol-5-yl)cyclohexane-carboxamide] | > 500 µM | > 500 µM | –
CCCn1nnnc1NC(=O)C1CCCC1 [Compound 8, N-(1-propyl-1H-tetrazol-5-yl)cyclopentane-carboxamide] | > 500 µM | > 500 µM | –
O=C(Nc1nnn[nH]1)c1cccc(Cl)c1 [Compound 9] | – | – | 78.9%
O=C(Nc1ccccc1)c1cccc(Cl)c1 [Compound 10, 3-chloro-N-phenylbenzamide] | > 500 µM | > 500 µM | 68.1%
